Measured values reported in patent US20260193236A1 (Protego Biopharma, Inc., priority 2022, published 2026).

tested on: IRE1-XBP1s (XBP1-RLuc splicing reporter in HEK293 T-REx cells); assay: IRE1-XBP1s activation assay (XBP1-RLuc splicing reporter, HEK293 T-REx cells, luminescence relative to thapsigargin); type: cell-based; conditions: 18 h, compound 10 μM, HEK293 T-REx XBP1-RLuc reporter cells, relative to thapsigargin (Tg) 500 nM, read-out: Activity (IRE1-XBP1s activation, luminescence as % signal relative to thapsigargin, % Tg)
Experimental: IRE1-XBP1s activation Assay: HEK293 T-REx cells stably expressing the XBP1-RLuc splicing reporter were treated with an IRE1-XBP1s activator provided herein (10 μM) in the presence or absence of the IRE1 active site inhibitor 4μ8C (32 μM) for 18 h. Luminescence was shown as the percentage signal relative to thapsigargin (Tg) (500 nM, 18 h).

SMILES	activation at 10 µM
CN(CCOc1ccc(Cl)nc1)C(=O)Cn1cc(NC(=O)CCOc2ccccc2F)cn1 [Compound 45]	30 to 50%
Cc1ccc(OCC(C)(C)N(C)C(=O)Cn2cc(NC(=O)CCNc3ccnc(F)n3)cn2)cc1 [Compound 256]	> 50%
Cc1ccc(OCCN(C)C(=O)Cn2cc(NC(=O)CCOc3ccccc3C)cn2)cc1 [Compound 34]	> 50%
Cc1ccc(OCCN(C)C(=O)Cn2cc(NC(=O)CCNc3cc(C)ncc3C)cn2)cc1 [Compound 173]	< 30%
COc1ccc(OCCC(=O)Nc2cnn(CC(=O)N(C)CCOc3ccc(C)cc3)c2)cc1 [Compound 42]	30 to 50%
Cc1ccc(OCCN(C)C(=O)Cn2cc(NC(=O)CCNc3c(F)cncc3Cl)cn2)cc1 [Compound 150]	30 to 50%
Cc1ccc(OCCC(=O)Nc2cnn(CC(=O)N(C)CCOc3ccc(C(F)(F)F)cc3)c2)c(F)c1 [Compound 67]	< 30%
Cc1ccc(OCCN(C)C(=O)Cn2cc(NC(=O)CCNc3ccnc(N)c3)cn2)cc1 [Compound 153]	< 30%
Cc1ccc(OCCN(C)C(=O)Cn2cc(NC(=O)[C@H](C)CNc3ccnc(F)n3)cn2)cc1 [Compound 225]	30 to 50%
Cc1ccc(OCCN(C)C(=O)Cn2cc(NC(=O)CCOc3c(F)cncc3Br)cn2)cc1 [Compound 97]	< 30%
Cc1ccc(OCCN(C)C(=O)Cn2cc(NC(=O)CCNc3ncccc3Cl)cn2)cc1 [Compound 148]	30 to 50%
Cc1ccc(OCCN(C)C(=O)Cn2cc(NC(=O)CCNc3ccnc(F)n3)cn2)cc1 [Compound 136]	30 to 50%
Cc1ncccc1NCCC(=O)Nc1cnn(CC(=O)N(C)CCOc2ccc(C(F)(F)F)cc2)c1 [Compound 204]	< 30%
Cc1ccc(OCCN(C)C(=O)Cn2cc(NC(=O)CCNc3cccc(C)n3)cn2)cc1 [Compound 160]	30 to 50%
Cc1ccc(OCCN(C)C(=O)Cn2cc(NC(=O)CCNc3ncc(Cl)cc3F)cn2)cc1 [Compound 140]	> 50%
Cc1ccc(OCCN(C)C(=O)Cn2cc(NC(=O)CCOc3c(F)cccc3Cl)cn2)cc1 [Compound 57]	30 to 50%
Cc1ccc(OCCN(C)C(=O)Cn2cc(NC(=O)CCNc3cc(F)ncc3F)cn2)cc1 [Compound 143]	< 30%
Cc1ccc(OCCN(C)C(=O)Cn2cc(NC(=O)CCNc3cc(C#N)ccn3)cn2)cc1 [Compound 137]	< 30%
C=C(C)c1cccc(OCCC(=O)Nc2cnn(CC(=O)N(C)CCOc3ccc(C)cc3)c2)n1 [Compound 107]	< 30%
Cc1ccc(OCCN(C)C(=O)Cn2cc(NC(=O)CCOc3cccc(Br)n3)cn2)cc1 [Compound 100]	> 50%
Cc1ccc(OCCN(C)C(=O)Cn2cc(NC(=O)CCNc3cnc(C)nc3)cn2)cc1 [Compound 212]	< 30%

SMILES	activation at 10 µM
Cc1ccc(OCCN(C)C(=O)Cn2cc(N(C)C(=O)CCOc3ccccc3)cn2)cc1 [Compound 50]	< 30%
Cc1ccc(OCCN(C)C(=O)Cn2cc(NC(=O)CCNc3ccnc(N)n3)cn2)cc1 [Compound 158]	< 30%
CNc1ccnc(OCCC(=O)Nc2cnn(CC(=O)N(C)CCOc3ccc(C)cc3)c2)n1 [Compound 216]	< 30%
Cc1ccc(OCCN(C)C(=O)Cn2cc(NC(=O)C(CNc3ncc(F)cn3)CC(C)C)cn2)cc1 (centres unmarked) [Compound 162]	< 30%
Cc1ccc(OCCN(C)C(=O)Cn2cc(NC(=O)CCOc3ccc4c(c3)OCO4)cn2)cc1 [Compound 33]	> 50%
Cc1ccc(OC[C@@H](C)N(C)C(=O)Cn2cc(NC(=O)CCNc3ccnc(O)n3)cn2)cc1 [Compound 266]	< 30%
Cc1ccc(OCCN(C)C(=O)Cn2cc(NC(=O)CCNc3ccnc(F)c3)cn2)cc1 [Compound 131]	30 to 50%
COc1ccc(OCCN(C)C(=O)Cn2cc(NC(=O)CCOc3ccnc(F)c3)cn2)cc1 [Compound 96]	< 30%
Cc1ccc(OCCN(C)C(=O)Cn2cc(NC(=O)CCNc3ncc(F)cn3)cn2)cc1 [Compound 193]	30 to 50%
Cc1ccc(OCCN(C)C(=O)Cn2cc(NC(=O)CNCc3cccnc3N)cn2)cc1 [Compound 83]	< 30%
Cc1ccc(OCCN(C)C(=O)Cn2cc(NC(=O)CCNc3nccnc3Cl)cn2)cc1 [Compound 147]	> 50%
Cc1ccc(OC[C@H](C)N(C)C(=O)Cn2cc(NC(=O)CCOc3c(F)cccc3F)cn2)cc1 [Compound 81]	> 50%
Cc1ccc(OCCN(C)C(=O)Cn2cc(NC(=O)CC(C)(C)Nc3nccc(F)n3)cn2)cc1 [Compound 218, 3-((4-fluoropyrimidin-2-yl)amino)-3-methyl-N-(1-(2-(methyl(2-(p-tolyloxy)ethyl)amino)-2-oxoethyl)-1H-pyrazol-4-yl)butanamide]	> 50%
Cc1ccc(OCCN(C)C(=O)Cn2cc(NC(=O)CCNc3ccc4c(c3)OC(F)(F)O4)cn2)cc1 [Compound 290]	< 30%
Cc1ccc(OCCN(C)C(=O)Cn2cc(NC(=O)CCNc3ncc(C(F)(F)F)cc3Cl)cn2)cc1 [Compound 130]	< 30%
Cc1ccc(OCCN(C)C(=O)Cn2cc(NC(=O)CCNc3ccc(F)nc3C)cn2)cc1 [Compound 196]	> 50%
Cc1ccc(OCCN(C)C(=O)Cn2cc(NC(=O)CCOc3c(C)ccnc3C)cn2)cc1 [Compound 14]	30 to 50%
Cc1ccc(OCCN(C)C(=O)Cn2cc(NC(=O)CCOc3ccccc3Cl)cn2)cc1 [Compound 32]	> 50%
Cc1ccc(OCCN(C)C(=O)Cn2cc(NC(=O)CCOc3ccnc(Cl)c3)cn2)cc1 [Compound 8]	> 50%
CN(CCOc1ccc(C(F)(F)F)cc1)C(=O)Cn1cc(NC(=O)CCOc2ccncc2F)cn1 [Compound 19]	30 to 50%
Cc1ccc(OCCN(C)C(=O)Cn2cc(NC(=O)CCOc3ccc(F)cc3C)c(C)n2)cc1 [Compound 65]	< 30%

SMILES	activation at 10 µM
COc1cccc(OCCC(=O)Nc2cnn(CC(=O)N(C)CCOc3ccc(C)cc3)c2)c1 [Compound 36]	> 50%
Cc1cnc(OCCN(C)C(=O)Cn2cc(NC(=O)CCNc3ccc(F)nc3C)cn2)cn1 [Compound 240]	< 30%
Cc1ccc(OCCN(C)C(=O)Cn2cc(NC(=O)CCOc3cccc(C(C)C)n3)cn2)cc1 [Compound 108]	< 30%
Cc1ccc(OCCN(C)C(=O)Cn2cc(NC(=O)CCNc3cncnc3C(C)C)cn2)cc1 [Compound 257]	< 30%
Cc1ccc(OCCN(C)C(=O)Cn2cc(NC(=O)CCNc3cc(N)ccn3)cn2)cc1 [Compound 202]	> 50%
Cc1ccc(OCCN(C)C(=O)Cn2cc(NC(=O)CCOc3cccnc3)cn2)cc1 [Compound 6, N-(1-(2-(methyl(2-(p-tolyloxy)ethyl)amino)-2-oxoethyl)-1H-pyrazol-4-yl)-3-(pyridin-3-yloxy)propanamide]	> 50%
Cc1ccc(OCCC(=O)Nc2cnn(CC(=O)N(C)CCOc3cc(F)c(C)c(F)c3)c2)c(F)c1 [Compound 85]	> 50%
Cc1ccc(OCCN(C)C(=O)Cn2cc(NC(=O)CCNc3cccc(C#N)n3)cn2)cc1 [Compound 132]	> 50%
Cc1ccc(OCCN(C)C(=O)Cn2cc(NC(=O)CCNc3cnc(C#N)c(F)c3)cn2)cc1 [Compound 177]	30 to 50%
Cc1ccc(OCCN(C)C(=O)Cn2cc(NC(=O)C3(CNc4ccc(F)nc4C)CC3)cn2)cc1 [Compound 293, 1-(((6-fluoro-2-methylpyridin-3-yl)amino)methyl)-N-(1-(2-(methyl (2-(p-tolyloxy)ethyl)amino)-2-oxoethyl)-1H-pyrazol-4-yl)cyclopropane-1-carboxamide]	< 30%
Cc1ccc(OCCN(C)C(=O)Cn2cc(NC(=O)CCNc3ccnc(C)c3F)cn2)cc1 [Compound 209]	< 30%
Cc1ccc(OCCN(C)C(=O)Cn2cc(NC(=O)CCNc3nc(Cl)ns3)cn2)cc1 [Compound 134]	> 50%
Cc1ccc(OCCN(C)C(=O)Cn2cc(NC(=O)CCOc3c(C(C)C)ccnc3C)cn2)cc1 [Compound 15]	> 50%
Cc1ccc(OCCN(C)C(=O)Cn2cc(NC(=O)CCNc3cncc(C)c3)cn2)cc1 [Compound 180]	30 to 50%
Cc1ccc(OCCN(C)C(=O)Cn2cc(NC(=O)CCOc3cccc(CO)c3)cn2)cc1 [Compound 61]	> 50%
CCc1ccc(OCCN(C)C(=O)Cn2cc(NC(=O)CCOc3ccccc3F)cn2)cc1 [Compound 52]	30 to 50%
Cc1ccc(OCCN(C)C(=O)Cn2cc(NC(=O)/C=C/Oc3c(Cl)ccnc3C)cn2)cc1 [Compound 115]	< 30%
CCc1ccc(OCCN(C)C(=O)Cn2cc(NC(=O)CCOC3CCCCC3)cn2)cc1 [Compound 5]	30 to 50%
COc1cc(C)ccc1OCCN(C)C(=O)Cn1cc(NC(=O)CCNc2ncccn2)cn1 [Compound 284]	< 30%
CNC(=O)c1cnc(NCCC(=O)Nc2cnn(CC(=O)N(C)CCOc3ccc(C)cc3)c2)nc1 [Compound 211]	< 30%

same assay, conditions: 18 h, read-out: Activity (IRE1-XBP1s activation, luminescence as % signal relative to thapsigargin, % Tg)

SMILES	activation at 10 µM
Cc1ccc(OCCN(C)C(=O)Cn2cc(NC(=O)COc3cccc4cccnc34)cn2)cc1 [Compound 287, N-methyl-2-(4-(2-(quinolin-8-yloxy)acetamido)-1H-pyrazol-1-yl)-N-(2-(p-tolyloxy)ethyl)acetamide]	< 30%
Cc1ccc(OCC(C)(C)N(C)C(=O)Cn2cc(NC(=O)CCOc3ccccc3F)cn2)cc1 [Compound 63]	> 50%
CN(CCOc1ccccn1)C(=O)Cn1cc(NC(=O)CCOc2ccccc2F)cn1 [Compound 43, 3-(2-fluorophenoxy)-N-(1-(2-(methyl(2-(pyridin-2-yloxy)ethyl)amino)-2-oxoethyl)-1H-pyrazol-4-yl)propanamide]	< 30%
